Assay results taken from US20160145223A1, “Bicyclyl-Substituted Isothiazoline Compounds” (BASF SE, priority 2013, published 2016).

Legend:
Assay type in all cases: in vivo
[1] = tested on: Green Peach Aphid (Myzus persicae); test: Green peach aphid artificial diet test, systemic (B.2); conditions: 72 h, adult aphids on treated artificial diet, 3 days, in comparison with untreated controls
From the text: For evaluating control of green peach aphid (Myzus persicae) through systemic means the test unit consisted of 96-well-microtiter plates containing liquid artificial diet under an artificial membrane.
The compounds were formulated using a solution containing 75% v/v water and 25% v/v DMSO. Different concentrations of formulated compounds were pipetted into the aphid diet, using a custom built pipetter, at two replications.
After application, 5-8 adult aphids were placed on the artificial membrane inside the microtiter plate wells. The aphids were then allowed to suck on the treated aphid diet and incubated at about 23±1° C. and about 50±5% relative humidity for 3 days. Aphid mortality and fecundity was then visually assessed.

[2] = tested on: Boll Weevil (Anthonomus grandis); test: Boll weevil insect diet test (B.5); conditions: 120 h, egg and larval mortality, 5 days, in comparison with untreated controls
Experimental: For evaluating control of boll weevil (Anthonomus grandis) the test unit consisted of 96-well-microtiter plates containing an insect diet and 5-10 A. grandis eggs.
(§1) The compounds were formulated using a solution containing 75% v/v water and 25% v/v DMSO. Different concentrations of formulated compounds were sprayed onto the insect diet at 5 μl, using a custom built micro atomizer, at two replications.
After application, microtiter plates were incubated at about 25±1° C. and about 75±5% relative humidity for 5 days. Egg and larval mortality was then visually assessed.

[3] = tested on: Tobacco Budworm (Heliothis virescens); test: Tobacco budworm insect diet test (B.4); conditions: 120 h, egg and larval mortality, 5 days, in comparison with untreated controls
Experimental: For evaluating control of tobacco budworm (Heliothis virescens) the test unit consisted of 96-well-microtiter plates containing an insect diet and 15-25 H. virescens eggs.
The compounds were formulated using a solution containing 75% v/v water and 25% v/v DMSO. Different concentrations of formulated compounds were sprayed onto the insect diet at 10 μl, using a custom built micro atomizer, at two replications.
(§2) After application, microtiter plates were incubated at about 28±1° C. and about 80±5% relative humidity for 5 days. Egg and larval mortality was then visually assessed.

[4] = tested on: Diamond Back Moth (Plutella xylostella); test: Diamond back moth leaf-dip test (B.1); conditions: 3rd instar larvae on dipped cabbage leaves, 72 hours after treatment, in comparison with untreated controls
Experimental: The active compound was dissolved at the desired concentration in a mixture of 1:1 (vol:vol) distilled water:aceteone. Surfactant (Kinetic HV) was added at a rate of 0.01% (vol/vol). The test solution was prepared at the day of use.
Leaves of cabbage were dipped in test solution and air-dried. Treated leaves were placed in petri dishes lined with moist filter paper and inoculated with ten 3rd instar larvae. Mortality was recorded 72 hours after treatment. Feeding damages were also recorded using a scale of 0-100%.

[5] = tested on: Orchid Thrips (Dichromothrips corbetti); test: Orchid thrips floral-immersion test (B.7); conditions: adult thrips on dipped orchid petals, 72 hours after treatment, in comparison with untreated controls
Experimental: Dichromothrips corbetti adults used for bioassay were obtained from a colony maintained continuously under laboratory conditions. For testing purposes, the test compound is diluted in a 1:1 mixture of acetone:water (vol:vol), plus Kinetic HV at a rate of 0.01% v/v.
Thrips potency of each compound was evaluated by using a floral-immersion technique. All petals of individual, intact orchid flowers were dipped into treatment solution and allowed to dry in Petri dishes. Treated petals were placed into individual re-sealable plastic along with about 20 adult thrips. All test arenas were held under continuous light and a temperature of about 28° C. for duration of the assay. After 3 days, the numbers of live thrips were counted on each petal. The percent mortality was recorded 72 hours after treatment.

[6] = tested on: Red Spider Mite (Tetranychus kanzawai); test: Red spider mite cowpea spray test (B.9); conditions: mites on sprayed cowpea beans, 72 hours after treatment, in comparison with untreated controls
Experimental: The active compound was dissolved at the desired concentration in a mixture of 1:1 (vol:vol) distilled water:acetone. Add surfactant (Kinetic HV) was added at a rate of 0.01% (vol/vol). The test solution was prepared at the day of use.
Potted cowpea beans of 4-5 days of age were cleaned with tap water and sprayed with 1-2 ml of the test solution using air driven hand atomizer. The treated plants were allowed to air dry and afterwards inoculated with 30 or more mites by clipping a cassava leaf section from rearing population. Treated plants were placed inside a holding room at about 25-27° C. and about 50-60% relative humidity. Percent mortality was assessed 72 hours after treatment.

[7] = tested on: Vetch Aphid (Megoura viciae); test: Vetch aphid broad bean leaf disk test (B.3); conditions: foliar, 120 h, adult aphids on sprayed leaf disks, 5 days, in comparison with untreated controls
Experimental: For evaluating control of vetch aphid (Megoura viciae) through contact or systemic means the test unit consisted of 24-well-microtiter plates containing broad bean leaf disks.
The compounds were formulated using a solution containing 75% v/v water and 25% v/v DMSO. Different concentrations of formulated compounds were sprayed onto the leaf disks at 2.5 μl, using a custom built micro atomizer, at two replications.
After application, the leaf disks were air-dried and 5-8 adult aphids placed on the leaf disks inside the microtiter plate wells. The aphids were then allowed to suck on the treated leaf disks and incubated at about 23±1° C. and about 50±5% relative humidity for 5 days. Aphid mortality and fecundity was then visually assessed.

[8] = tested on: Rice green leafhopper (Nephotettix virescens); test: Rice green leafhopper rice seedling spray test (B.8); conditions: adults on sprayed rice seedlings, after 72 hours, in comparison with untreated controls
Experimental: Rice seedlings were cleaned and washed 24 hours before spraying. The active compounds were formulated in 1:1 acetone:water (vol:vol), and 0.01% vol/vol surfactant (Kinetic HV) was added. Potted rice seedlings were sprayed with 5-6 ml test solution, air dried, covered with Mylar cages cages and inoculated with 10 adults. Treated rice plants were kept at about 28-29° C. and relative humidity of about 50-60%. Percent mortality was recorded after 72 hours.

[9] = tested on: Mediterranean Fruitfly (Ceratitis capitata); test: Mediterranean fruitfly insect diet test (B.6); conditions: 120 h, egg and larval mortality, 5 days, in comparison with untreated controls
Experimental: as §1, with “For evaluating control of Mediterranean fruitfly (Ceratitis capitata) the test unit consisted of microtiter plates containing an insect diet and 50-80 C. capitata eggs. The” for “The”
as §2

O=C(O)c1ccc(C2=NSC(c3cc(Cl)c(F)c(Cl)c3)(C(F)(F)F)C2)c2c1CCC2 (centres unmarked) [Compound 1-1, 7-[5-(3,5-Dichloro-4-fluoro-phenyl)-5-(trifluoromethyl)-4H-isothiazol-3-yl]indane-4-carboxylic acid]
≥ 75%: mortality at 2500 ppm [1] | mortality at 2500 ppm [2] | mortality at 2500 ppm [3]

O=C(NCC(F)(F)F)c1ccc(C2=NSC(c3cc(Cl)c(F)c(Cl)c3)(C(F)(F)F)C2)c2c1CCC2 (centres unmarked) [Compound 1-7, 7-[5-(3,5-Dichloro-4-fluoro-phenyl)-5-(trifluoromethyl)-4H-isothiazol-3-yl]-N-(2,2,2-trifluoroethyl)indane-4-carboxamide]
≥ 75%: mortality at 500 ppm [4] | mortality at 2500 ppm [1] | mortality at 500 ppm [5] | mortality at 500 ppm [6] | mortality at 2500 ppm [7] | mortality at 500 ppm [8] | mortality at 2500 ppm [2] | mortality at 2500 ppm [3] | mortality at 2500 ppm [9]

COC(=O)c1ccc(C2=NSC(c3cc(Cl)c(F)c(Cl)c3)(C(F)(F)F)C2)c2c1CCCC2 (centres unmarked) [Compound 2-1, Methyl 8-[5-(3,5-dichloro-4-fluoro-phenyl)-5-(trifluoromethyl)-4H-isothiazol-3-yl]tetralin-5-carboxylate]
≥ 75%: mortality at 2500 ppm [2] | mortality at 2500 ppm [3] | mortality at 2500 ppm [9]

O=C(O)c1ccc(C2=NSC(c3cc(Cl)c(F)c(Cl)c3)(C(F)(F)F)C2)c2c1CCCC2 (centres unmarked) [Compound 2-2, 8-[5-(3,5-Dichloro-4-fluoro-phenyl)-5-(trifluoromethyl)-4H-isothiazol-3-yl]tetralin-5-carboxylic acid]
≥ 75%: mortality at 2500 ppm [2] | mortality at 2500 ppm [3] | mortality at 2500 ppm [9]

O=C(NCc1ncccn1)c1ccc(C2=NSC(c3cc(Cl)c(F)c(Cl)c3)(C(F)(F)F)C2)c2c1CCCC2 (centres unmarked) [Compound 2-6, 8-[5-(3,5-Dichloro-4-fluoro-phenyl)-5-(trifluoromethyl)-4H-isothiazol-3-yl]-N-(pyrimidin-2-ylmethyl)tetralin-5-carboxamide]
≥ 75%: mortality at 2500 ppm [1] | mortality at 2500 ppm [7] | mortality at 2500 ppm [2] | mortality at 2500 ppm [3] | mortality at 2500 ppm [9]
